Entries after “also recorded” stand apart in the source; their conditions may differ.
Assays:
[1] = test system: HT29 cells; test: Fluorescence microscopy of FITC-labeled peptides; type: cell-based, human; conditions: 10 μM; for internalization within HT29 cells: 37° C.; for binding to the surface of HT29 cells: 15 min, 4° C.
Protocol: Preferential binding of the FITC-Peptide 2 and FITC-Control peptide 2 to target and non-target cells was also validated via fluorescence microscopy. HT29 and Hs738.St/Int. cells were grown in 22 mm2 cover slips with ˜80% confluence. Blocking of non-specific binding was performed by adding PBS/0.5% BSA for 30 min. The cells were then incubated with 10 μM of FITC-Peptide 2 or FITC-Control peptide 2 either at 4 or 37° C. for 15 min followed by 1 μg/mL Hoechst dye (Sigma Aldrich, St. Louis, Mo.) along with the peptide. The cells were washed with PBS for 3 times and fixed with 4% paraformaldehyde at room temperature for 10 min. After fixation, the cells were washed again with PBS (1×) and mounted with ProLong® Gold reagent (Invitrogen, Carlsbad, Calif.) and the fluorescence images were acquired with Leica Confocal system. (Leica Microsystems GMBH, Wetzlar, 35578 Germany)
In addition, the ability of the FITC-Peptide 2 peptide to internalize within the HT29 cells was tested. HT29 cells were incubated for 15 min. at either 4° C. or 37° C. in the presence of 10 μM FITC-Peptide 2.
Preferential binding of the FITC-labeled candidate and control peptides to the target and non-target cells was further validated via fluorescence microscopy. HT29 and Hs738.St/Int. cells were grown on cover slips to ˜80% confluence. Blocking of non-specific binding was performed by adding PBS/0.5% BSA for 30 min. The cells were then incubated with 10 μM of 5-FITC-labeled candidate or control peptide at either 4 or 37° C. for 15 min followed by staining with 1 μg/mL Hoechst dye (Sigma Aldrich, St. Louis, Mo.) along with the peptide. The cells were washed 3× with PBS and fixed with 4% paraformaldehyde at RT for 10 min. After fixation, the cells were washed again with PBS and mounted with ProLong Gold reagent (Invitrogen, Carlsbad, Calif.) and fluorescence images were collected with confocal microscopy (Leica TCS SP5 Microsystems, Bannockburn, Ill.).

[2] = test system: HT29 cells; test: Determination of binding constant (plate reader fluorescence); design: species or system human
Protocol: The binding affinity of FITC-Peptide 2 to HT29 cells (1×10^5) was determined using various concentrations of the peptide. The fluorescence intensity of the peptide bound to the HT29 cells was measured at saturation. Then, the FITC-labeled peptide was serially diluted in PBS at concentrations that varied from 0 to 70 μmol/L and incubated with 1×10^5 HT29 cells at 4° C. for 1 hr. After washing 3 times with cold PBS/0.2% Tween 20 solution, the unbound peptide was rinsed off. The cells were resuspended in 200 μL PBS and transferred to a 96 well plate. The fluorescence intensity I was measured at 525 nm using 485 nm as the excitation wavelength on a multi-well plate reader (CytoFluor Series 4000; Applied Biosystems Inc, Foster City, Calif.). Binding of the peptide to the cells was calculated using the peptide emission intensity with the same concentration without the cells present. The peptide equilibrium dissociation constant Kd=1/Ka was calculated by performing a least squares fit of the data to the non-linear equation I=(I0+ImaxKa[X])/(I0+Ka[X]). I0 and Imax are the initial and maximum fluorescence intensities, corresponding to no peptide and at saturation, respectively, and [X] represents the concentration of the bound peptide. Origin 6.1 data analysis software (Origin Lab Corp, Northampton, Mass.) was used to fit the equation for non-linear least square fitting. […]

[3] = test system: human colon surgical specimens (normal mucosa, dysplastic adenomas, carcinoma); test: Binding of synthetic peptides to human surgical specimens of colon cancer (Example 9)
Protocol: Fresh frozen sections from human surgical specimens were cryosectioned with […] and used to localize peptide binding. The sectioned tissues were air dried and washed with PBS 1×. Sections were incubated with FITC labeled peptides (10 μM) for 15 min at RT. The sections were washed three times each for 1 min in PBS and fixed with 4% paraformaldehyde for 10 min. After fixing, the sections were washed again (1×) and mounted with ProLong® Gold reagent with DAPI (Invitrogen, Carlsbad, Calif.). The sections were imaged under a confocal microscope ([…]). All surgical specimens were obtained from the tissue procurement core of University of Michigan with approval from the Institutional Review Board (IRB).

[4] = test system: colonic adenomas; test: In vivo imaging with non-scanning endoscope, FITC-labeled peptides; design: species or system CPC; Apc mice; conditions: Non-scanning Endoscopy Results; FITC label; mean ± SD
From the text: Specific binding of the candidate peptides to primary dysplastic colonic epithelial cells were validated on flow cytometry ex vivo and with small animal endoscopy in vivo using FITC-labeled peptides using a non-scanning white light endoscope.

## KCCFPAQ-FITC [FITC-Peptide 2, KCCFPAQ with FITC at the C-terminus on the side chain of lysine residue via GGGSK linker]
[1]
  internalization within HT29 cells: diffuse staining throughout the cells
  binding to the surface of HT29 cells: binds to the surface of the HT29; also recorded: confined to the cell surface
[1]; listed as KCCFPAQ peptide
  internalization within HT29 cells: diffuse peptide staining throughout the cells
  binding to the surface of HT29 cells: binds to the surface of the HT29 cells
[2]; FITC-labeled peptide 0 to 70 μM, 4° C., 1 hr, R^2=0.988
  Kd: 65 nM
[2]; summary of results
  Kd: 65 nM
[3]
  T/B carcinoma compared to normal mucosa: 7
  binding to carcinoma relative to dysplastic adenomas: 1.5 fold
[3]; 10 μM, 15 min, RT
  binding to normal mucosa: no binding was observed
  staining of pre-malignant lesions (dysplastic adenomas) and malignant lesions (carcinoma): stained consistently
[3]; adenoma
  T/B ratio FITC-Peptide 2 vs. FITC-Control peptide 2: 3
[3]; carcinoma
  T/B ratio FITC-Peptide 2 vs. FITC-Control peptide 2: 6
[3]; normal mucosa
  T/B ratio FITC-Peptide 2 vs. FITC-Control peptide 2: 1
[4]
  Average T/B: 1.69 ± 0.70

Reference: patent US8901276B2, “Peptide reagents and methods for detection of colon dysplasia” (The Regents of the University of Michigan, priority 2010, dated 2014)
